Molecular target: T1, KSP (Homo sapiens, UniProt P52732)
T1 sequence (P52732 1-1056): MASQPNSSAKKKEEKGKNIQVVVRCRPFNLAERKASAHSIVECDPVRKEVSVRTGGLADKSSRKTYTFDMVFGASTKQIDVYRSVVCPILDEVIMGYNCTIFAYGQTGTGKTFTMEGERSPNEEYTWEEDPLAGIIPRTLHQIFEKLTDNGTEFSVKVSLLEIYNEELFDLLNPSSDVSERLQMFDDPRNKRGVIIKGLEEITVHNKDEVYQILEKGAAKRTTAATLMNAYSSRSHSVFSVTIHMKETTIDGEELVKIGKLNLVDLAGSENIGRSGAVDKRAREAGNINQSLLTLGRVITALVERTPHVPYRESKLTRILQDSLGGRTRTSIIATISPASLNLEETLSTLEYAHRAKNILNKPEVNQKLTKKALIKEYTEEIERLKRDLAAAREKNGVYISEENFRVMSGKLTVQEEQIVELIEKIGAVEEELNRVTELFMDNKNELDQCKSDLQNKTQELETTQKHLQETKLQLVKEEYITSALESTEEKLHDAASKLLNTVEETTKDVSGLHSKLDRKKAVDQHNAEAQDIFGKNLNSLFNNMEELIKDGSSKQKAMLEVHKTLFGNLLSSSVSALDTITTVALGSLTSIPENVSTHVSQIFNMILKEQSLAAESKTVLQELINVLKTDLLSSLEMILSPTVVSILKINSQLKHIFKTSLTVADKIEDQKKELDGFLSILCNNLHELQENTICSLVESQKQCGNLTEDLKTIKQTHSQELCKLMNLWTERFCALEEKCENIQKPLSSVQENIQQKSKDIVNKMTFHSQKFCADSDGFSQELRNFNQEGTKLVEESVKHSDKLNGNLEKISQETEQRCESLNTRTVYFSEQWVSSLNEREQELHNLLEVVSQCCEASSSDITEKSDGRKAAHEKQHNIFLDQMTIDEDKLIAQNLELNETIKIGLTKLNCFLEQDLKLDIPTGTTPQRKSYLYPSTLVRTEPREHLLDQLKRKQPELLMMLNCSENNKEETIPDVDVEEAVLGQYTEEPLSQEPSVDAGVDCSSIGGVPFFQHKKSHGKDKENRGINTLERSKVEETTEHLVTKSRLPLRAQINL
Test: KSP inhibitory activity, end-point assay
Format: biochemical
Conditions: KSP inhibitory activity based on end-point assay; read-out: IC50 Rating
Excerpt: The inhibitory activity of the present compounds towards KSP may be assayed by methods known in the art, for example, by using the methods as described in the examples.

| Compound | IC50 [µM] |
| --- | --- |
| C[C@@H](CO)NC(=O)c1c[nH]c2cc3c(nc12)CCC(C(C)(C)C)C3 (stereo partly shown) [Example 76] | > 10 |
| C[C@H](CO)NC(=O)c1c[nH]c2cc3c(nc12)CCC(C(C)(C)C)C3 (stereo partly shown) [Example 77] | > 10 |
| C=CCNC(=O)c1c[nH]c2cc3c(nc12)CCC(C(C)(C)C)C3 (stereo not shown) [Example 78] | > 10 |
| CC(C)(C)C1CCc2nc3c(C(=O)NN)c[nH]c3cc2C1 (stereo not shown) [Example 79] | 0.1 to 1 |
| CC(C)(C)C1CCc2nc3c(C(=O)NCCCO)c[nH]c3cc2C1 (stereo not shown) [Example 80] | 1 to 10 |
| CC(C)(C)C1CCc2nc3c(C(N)=O)c[nH]c3cc2C1 (stereo not shown) [Example 82] | 0.1 to 1 |
| CC(C)(C)C1CCc2nc3cc[nH]c3cc2C1 (stereo not shown) [Example 83] | < 0.1 |
| CC(=O)Nc1c[nH]c2cc3c(nc12)CCC(C(C)(C)C)C3 (stereo not shown) [Example 84] | 1 to 10 |
| CC(C)(C)C1CCc2nc3c(CC(N)=O)c(O)[nH]c3cc2C1 (stereo not shown) [Example 85] | > 10 |
| COCCOCc1cc2nc3c(cc2[nH]1)CC(C(C)(C)C)CC3 (stereo not shown) [Example 86] | 0.1 to 1 |
| COCc1cc2nc3c(cc2[nH]1)CC(C(C)(C)C)CC3 (stereo not shown) [Example 87] | 0.1 to 1 |
| CCOCc1cc2nc3c(cc2[nH]1)CC(C(C)(C)C)CC3 (stereo not shown) [Example 88] | 0.1 to 1 |
| CC(C)OCc1cc2nc3c(cc2[nH]1)CC(C(C)(C)C)CC3 (stereo not shown) [Example 89] | > 10 |
| CC(C)(C)C1CCc2nc3cc(C(=O)NCc4ccc5c(c4)OCO5)[nH]c3cc2C1 (stereo not shown) [Example 90] | > 10 |
| CC(C)(C)C1CCc2nc3cc(C(=O)NCc4ccccn4)[nH]c3cc2C1 (stereo not shown) [Example 91] | > 10 |
| CC(C)(C)C1CCc2nc3cc(C(=O)NCCN4CCNCC4)[nH]c3cc2C1 (stereo not shown) [Example 92] | 1 to 10 |
| Cc1cc(C)n(C(=O)c2c[nH]c3cc4c(nc23)CCC(C(C)(C)C)C4)n1 (stereo not shown) [Example 93] | > 10 |
| CC(C)(C)C1CCc2nc3c(C(=O)Nc4ncccn4)c[nH]c3cc2C1 (stereo not shown) [Example 94] | > 10 |
| CC(C)(C)C1CCc2nc3cc(C(=O)NNc4ccccc4)[nH]c3cc2C1 (stereo not shown) [Example 95] | > 10 |
| CC(C)(C)C1CCc2nc3cc(C(=O)Nc4nnn[nH]4)[nH]c3cc2C1 (stereo not shown) [Example 96] | 0.1 to 1 |
| CC(C)(C)C1CCc2nc3cc(C(=O)Nc4ccncc4)[nH]c3cc2C1 (stereo not shown) [Example 97] | 0.1 to 1 |
| CCOC(=O)c1cc(NC(=O)c2cc3nc4c(cc3[nH]2)CC(C(C)(C)C)CC4)c[nH]1 (stereo not shown) [Example 98] | > 10 |
| CC(C)(C)C1CCc2nc3cc(C(=O)NNCCC#N)[nH]c3cc2C1 (stereo not shown) [Example 99] | > 10 |
| CNNC(=O)c1cc2nc3c(cc2[nH]1)CC(C(C)(C)C)CC3 (stereo not shown) [Example 100] | > 10 |
| CC(C)(C)C1CCc2nc3cc(C(=O)NNc4ccccn4)[nH]c3cc2C1 (stereo not shown) [Example 101] | 0.1 to 1 |

| Compound | IC50 [µM] |
| --- | --- |
| CC(C)(C)C1CCc2nc3cc(C(=O)Nc4ccc(O)cc4)[nH]c3cc2C1 (stereo not shown) [Example 102] | 0.1 to 1 |
| CC(C)(C)[C@@H]1CCc2nc3cc(C(=O)Nc4ccc(O)cc4)[nH]c3cc2C1 [Example 103A] | 0.1 to 1 |
| CC(C)(C)[C@H]1CCc2nc3cc(C(=O)Nc4ccc(O)cc4)[nH]c3cc2C1 [Example 103B] | > 10 |
| CC(C)(C)C1CCc2nc3cc(C(=O)Nc4ccc(N)nc4)[nH]c3cc2C1 (stereo not shown) [Example 104] | 0.1 to 1 |
| CC(C)(C)C1CCc2nc3cc(C(=O)Nc4ccc(CCO)cc4)[nH]c3cc2C1 (stereo not shown) [Example 105] | 1 to 10 |
| CC(C)(C)C1CCc2nc3cc(C(=O)N[C@H](CO)c4ccccc4)[nH]c3cc2C1 (stereo partly shown) [Example 106] | 0.1 to 1 |
| CC(C)(C)C1CCc2nc3cc(C(=O)N[C@@H](CO)c4ccccc4)[nH]c3cc2C1 (stereo partly shown) [Example 107] | > 10 |
| CC(C)(C)C1CCc2nc3cc(C(=O)N[C@H](CO)Cc4ccccc4)[nH]c3cc2C1 (stereo partly shown) [Example 108] | > 10 |
| CC(C)(C)C1CCc2nc3cc(C(O)c4ccccc4)[nH]c3cc2C1 (stereo not shown) [Example 109] | > 10 |
| COc1cccc(C(O)c2cc3nc4c(cc3[nH]2)CC(C(C)(C)C)CC4)c1 (stereo not shown) [Example 110] | > 10 |
| COc1ccc(C(O)c2cc3nc4c(cc3[nH]2)CC(C(C)(C)C)CC4)cc1 (stereo not shown) [Example 111] | > 10 |
| CC(C)(C)C1CCc2nc3cc(C(O)c4cccc(Cl)c4)[nH]c3cc2C1 (stereo not shown) [Example 112] | > 10 |
| CCC(O)c1cc2nc3c(cc2[nH]1)CC(C(C)(C)C)CC3 (stereo not shown) [Example 113] | 0.1 to 1 |
| C=CCC(O)c1cc2nc3c(cc2[nH]1)CC(C(C)(C)C)CC3 (stereo not shown) [Example 114] | 0.1 to 1 |
| CC(C)(C)C1CCc2nc3c(-c4cccc(O)c4)c(C(N)=O)[nH]c3cc2C1 (stereo not shown) [Example 115] | 1 to 10 |
| COc1cccc(-c2c(C(N)=O)[nH]c3cc4c(nc23)CCC(C(C)(C)C)C4)c1 (stereo not shown) [Example 116] | > 10 |
| CC(C)(C)C1CCc2nc3c(-c4cccc(OC(F)(F)F)c4)c(C(N)=O)[nH]c3cc2C1 (stereo not shown) [Example 117] | > 10 |
| COc1ccc(OC)c(-c2c(C(N)=O)[nH]c3cc4c(nc23)CCC(C(C)(C)C)C4)c1 (stereo not shown) [Example 118] | > 10 |
| CC(C)(C)C1CCc2nc3c(-c4cccc(C#N)c4)c(C(N)=O)[nH]c3cc2C1 (stereo not shown) [Example 119] | > 10 |
| CC(C)(C)C1CCc2nc3c(-c4cccc(S(C)(=O)=O)c4)c(C(N)=O)[nH]c3cc2C1 (stereo not shown) [Example 120] | 0.1 to 1 |
| CC(C)(C)C1CCc2nc3c(-c4cccc(N)c4)c(C(N)=O)[nH]c3cc2C1 (stereo not shown) [Example 121] | > 10 |
| CC(C)(C)C1CCc2nc3cc(C(=O)N[C@H](CN)c4ccccc4)[nH]c3cc2C1 (stereo partly shown) [Example 122] | 0.1 to 1 |
| CC(C)(C)C1CCc2nc3cc(C(=O)N[C@H](CN)c4cccc(N)c4)[nH]c3cc2C1 (stereo partly shown) [Example 123] | < 0.1 |
| CC(C)(C)C1CCc2nc3cc(C(=O)N[C@H](CN)c4cccc(NC(=O)c5ccco5)c4)[nH]c3cc2C1 (stereo partly shown) [Example 124] | < 0.1 |
